This note sets out measurements from paper PMC7055022, “A novel TLR7 agonist as adjuvant to stimulate high quality HBsAg-specific immune responses in an HBV mouse model” (Journal of Translational Medicine, 2020).

The experiment deals with T1, human TLR7 (hTLR7) (Homo sapiens, UniProt Q9NYK1).
T1 sequence (Q9NYK1 27-1049): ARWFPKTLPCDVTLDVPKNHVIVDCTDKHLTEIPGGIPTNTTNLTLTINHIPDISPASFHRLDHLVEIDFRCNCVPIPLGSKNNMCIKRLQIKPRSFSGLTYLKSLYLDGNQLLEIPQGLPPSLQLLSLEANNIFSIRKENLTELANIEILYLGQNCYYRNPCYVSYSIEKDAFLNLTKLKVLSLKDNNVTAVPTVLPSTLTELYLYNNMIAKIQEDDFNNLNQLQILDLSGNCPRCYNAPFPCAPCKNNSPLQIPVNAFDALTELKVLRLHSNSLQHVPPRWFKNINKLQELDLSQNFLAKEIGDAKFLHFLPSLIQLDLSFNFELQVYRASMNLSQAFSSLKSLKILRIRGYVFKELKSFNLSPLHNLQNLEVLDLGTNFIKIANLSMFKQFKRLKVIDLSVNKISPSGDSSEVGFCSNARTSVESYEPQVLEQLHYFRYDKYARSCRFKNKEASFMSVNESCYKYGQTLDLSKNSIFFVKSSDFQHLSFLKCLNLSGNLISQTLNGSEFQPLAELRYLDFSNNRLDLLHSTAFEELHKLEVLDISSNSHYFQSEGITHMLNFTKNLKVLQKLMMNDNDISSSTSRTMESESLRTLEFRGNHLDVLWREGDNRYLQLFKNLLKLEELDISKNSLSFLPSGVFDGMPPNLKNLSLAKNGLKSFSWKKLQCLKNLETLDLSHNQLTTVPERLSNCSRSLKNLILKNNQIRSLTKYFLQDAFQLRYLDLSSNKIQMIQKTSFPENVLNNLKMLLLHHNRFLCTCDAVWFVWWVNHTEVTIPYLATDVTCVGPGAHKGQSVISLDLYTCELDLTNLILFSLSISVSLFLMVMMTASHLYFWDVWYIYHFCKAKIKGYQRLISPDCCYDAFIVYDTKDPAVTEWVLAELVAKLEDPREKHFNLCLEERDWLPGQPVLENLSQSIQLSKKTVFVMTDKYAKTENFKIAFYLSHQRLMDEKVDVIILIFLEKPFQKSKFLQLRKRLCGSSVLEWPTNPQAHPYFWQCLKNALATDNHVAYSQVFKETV
The experiment can be described thus: HEK-Blue hTLR7 SEAP/NF-κB reporter assay (agonist; inactive in hTLR8 cells). The experiment is classed as cell-based.

As for `C=C(CC)C(=O)c1ccc(OCC(=O)NCc2ccc(Cn3c(O)nc4c(N)nc(OCCOC)nc43)cc2)c(Cl)c1Cl` [compound 4, N-(4-((6-amino-8-hydroxy-2-(2-methoxyethoxy)-9H-purin-9-yl)methyl)benzyl)-2-(2,3-dichloro-4-(2-methylenebutanoyl)phenoxy)acetamide], the “HEK-Blue hTLR7 SEAP/NF-κB reporter assay (agonist; inactive in hTLR8 cells)” value is “T7-EA induced more potent SEAP reaction than T7 in HEK-Blue hTLR7 reporter cells”.
